Measured values reported in US11535633B2, “Fused tricyclic heterocycle compounds and therapeutic uses thereof” (Jiangsu Hengrui Medicine Co., Ltd., priority 2018, dated 2022).

Tests used:
[1] = biological target: T1, STING in THP1-Dual KI-hSTING-R232 cells (Homo sapiens, UniProt Q86WV6, H232R); assay: Human THP1 reporter cell assay (IRF luciferase reporter); assay type: cell-based; conditions: 24 hours incubation
T1 construct: host or cells: THP1-Dual KI-hSTING-R232 cells (human monocytic THP-1 reporter line)
Procedure: Test Example 2. Human THP1 Reporter Cell Assay
• 1. Human THP1-Dual KI-hSTING-R232 Cells (InvivoGen, Cat. #thpd-r232) • 2. QUANTI-LUC (InvivoGen, Cat. #rep-qlc2) • 3. Media for cell culture and compound dilution: RPMI with high glucose and glutamine (Genesee, Cat. #25-506), 10% fetal bovine serum (Life Technologies, Cat. #10082147), 25 mM HEPES (Genesee, Cat. #25-534), 100 μg/ml Normocin (InvivoGen, Cat. #ant-nr-2), 10 μg/ml blasticidin (InvivoGen, Cat. #ant-bl-05), 100 μg/ml Zeocin (InvivoGen, Cat. #ant-zn-5p) and Penicillin-Streptomycin (100×) (Life Technologies, Cat. #15140122) • 4. Infinite M1000 plate reader (TECAN) Experimental Procedure
Activation of STING in THP1-Dual KI-hSTING-R232 cells was determined by measuring the luminescence signal resulting from the expression of the IRF luciferase reporter gene. All reagent preparation and assay procedures were conducted according to the protocols provided by InvivoGen. In brief, test compounds and cells (1×10^5 cells per well) were dispensed into 96-well plates with a final volume per well of 150 μl. Plates were incubated in a humidified, 5% CO2 incubator at 37° C. for 24 hours. The expression level of the reporter gene was measured by transferring 20 μl of the supernatant to a non-transparent 96-well plate to which 50 μl of QUANTI-LUC was dispensed into each well. The resulting luminescence signal was immediately read using a TECAN plate reader. The background luminescence signal from media was subtracted. The fold induction effect of the luminescence signal at each compound concentration was determined relative to controls that lack compound treatment. The plot of fold induction effect versus the log of compound concentration was fit in GraphPad Prism with a 4-parameter concentration response equation to calculate EC50 and Emax.
Activation of STING in THP1 of the compounds in the present invention was determined by the above assay, and EC50 values are shown in the following table 2.

[2] = biological target: T2, hSTING c-terminal domain (purified hSTING aa154-342) (Homo sapiens, UniProt Q86WV6); assay: Thermal shift assay for measuring the relative binding affinity to hSTING c-terminal domain; conditions: Tm of sample minus mean Tm of negative control (buffer, 2% DMSO), SYPRO Orange
T2 construct: Purified hSTING (aa154-342)
Procedure: Test Example 1. Thermal Shift Assay for Measuring the Relative Binding Affinity to hSTING c-Terminal Domain
From each of the 10 mM stock solutions of compounds in DMSO, dilutions are made to create samples with three concentrations 10 mM, 5 mM and 2.5 mM. From these dilutions a final 50 fold dilution is made into assay buffer, giving concentrations of 200 μM, 100 μM, and 50 μM. From each of the buffer dilutions, 5 μL is added to the 384 well assay plate. A positive control is setup with cGAMP using the same dilution scheme as the ligands. A baseline thermal shift for the negative control is determined using buffer and 2% DMSO.
An aliquot of protein is thawed on ice and SYPRO orange reagent is brought to room temperature. The 5000× SYPRO orange stock is diluted in assay buffer to a concentration of 10×. Protein is diluted to a concentration of 10 μM in the prepared buffer/dye solution. Five micro-liters of protein/buffer/dye solution is added to each of the sample and control wells, and the plate is sealed with the provided films. The plate is centrifuged for 5 min at 20° C. at 1000 rpm.
On the Light Cycler instrument, measurements are made over a temperature gradient from 20° C. to 99° C. at 0.07° C./s and data acquisitions collected at a rate of 8/° C. is used to measure the change in fluorescence as a function of temperature. Data analysis is performed using the Roche Light Cycler Software to determine the melting temperature (Tm ° C.) of each sample. A mean Tm ° C. for the negative control is calculated and subtracted from each of the samples to generate the ΔTm ° C. values for each of the ligands.
The relative binding affinity to hSTING c-terminal domain of the compounds of the present invention was determined by the above assay, and ΔTm ° C. values are shown in the following table 1.

Human PBMC cells = assay: IFNβ secretion in human PBMC; assay type: cell-based; conditions: IFNβ in supernatant by ELISA, 5 hours incubation
Procedure: Test Example 3. IFNβ Secretion in Human PBMC
• 1. Human PBMC cells (STEMCELL Technologies) • 2. Lymphocyte Medium (Zenbio) • 3. Culture and compound dilution media: RPMI with high glucose and glutamine (Genesee, Cat. #25-506), 10% fetal bovine serum (Life Technologies, Cat. #10082147), 100 μg/ml Normocin (InvivoGen, Cat. #ant-nr-2) and Penicillin-Streptomycin (100×) (Life Technologies, Cat. #15140122) • 4. Human IFNβ Quantikine ELISA kit (R&D systems) • 5. Infinite M1000 plate reader (TECAN) Experimental Procedure
Cryopreserved peripheral blood human mononuclear cells (PBMCs) were rapidly thawed and resuspended in Lymphocyte Media and centrifuged at 500×g for 5 minutes. The supernatant was removed and the cell pellets were gently resuspended in cell culture and compound dilution media. Human PBMC cells were plated in a 96-well format at a concentration of 1.5×10^5 cells per well. The test compounds, at varying concentrations, or vehicle control (<0.3% DMSO) were mixed with the cells giving a final volume of 150 μl per well. The plates were incubated for 5 hours in a humidified, 5% CO2 incubator at 37° C. After incubation, the human IFNβ in the supernatant and the IFNβ standard controls were measured using human IFNβ Quantikine ELISA kit according to the manufacturer's protocol. The absorbance at 450 nm was measured with Infinite M1000 plate reader and corrected by background reading at 540 nm of each well. The amount of […] based on the standard curves. The plot of IFNβ concentration versus the log of compound concentration was fit in GraphPad Prism with a 4-parameter concentration response equation to calculate EC50 and Emax.

T2 sequence (Q86WV6 154-342): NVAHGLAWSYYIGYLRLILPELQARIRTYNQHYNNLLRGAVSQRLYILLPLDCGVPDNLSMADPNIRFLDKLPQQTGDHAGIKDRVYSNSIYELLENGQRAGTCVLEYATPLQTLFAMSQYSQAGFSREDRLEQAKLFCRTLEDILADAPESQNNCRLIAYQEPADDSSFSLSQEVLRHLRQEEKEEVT
T1 sequence (Q86WV6 whole entry H232R): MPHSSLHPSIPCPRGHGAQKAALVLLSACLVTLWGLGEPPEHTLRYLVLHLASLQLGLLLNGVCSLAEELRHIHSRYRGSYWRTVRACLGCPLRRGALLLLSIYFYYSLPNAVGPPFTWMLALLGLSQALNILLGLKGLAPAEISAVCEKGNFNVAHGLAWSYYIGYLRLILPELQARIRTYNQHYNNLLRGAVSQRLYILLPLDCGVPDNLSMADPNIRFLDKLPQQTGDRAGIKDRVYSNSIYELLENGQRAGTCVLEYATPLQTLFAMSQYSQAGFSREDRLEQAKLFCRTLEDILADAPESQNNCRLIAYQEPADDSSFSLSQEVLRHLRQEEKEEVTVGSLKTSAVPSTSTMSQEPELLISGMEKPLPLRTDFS

CC=CCC1COc2cc(C(N)=O)cc3nc(NC(=O)c4cc(C)nn4CC)n1c23 (stereo not drawn) [Example 5, 3-(but-2-en-1-yl)-2-(1-ethyl-3-methyl-1H-pyrazole-5-carboxamido)-3,4-dihydro-5-oxa-1,2a-diazaacenaphthylene-7-carboxamide] gave an EC50 [1] of 3 µM, a ΔTm at 100 µM [2] of 2.9 °C and an EC50 (Human PBMC cells) of 2 µM.
